In brackets after ≈: the same amount, converted by molar mass.
settings: buffer; pH 7.4; 200.0 µM

Compound | solubility kinetic [µg/mL]
[Br-].c1ccc(Cc2cc[n+](Cc3ccccn3)cc2)cc1 | > 51.2
O=c1[nH]cc(S(=O)(=O)NCc2ccccc2)c(=O)[nH]1 | > 42.2
Cc1ccc2nc(SCC(=O)c3ccc(O)cc3O)[nH]c2c1 | 6.4 (≈ 20.4 µM)
Cc1ccc(-c2cc(N)nc(-c3ccccc3)c2)cc1 | < 0.3
O=S1(=O)CCN(CCc2c[nH]c3ccccc23)CC1 | 38.2 (≈ 137 µM)
CC(C)Cn1cc(Cl)c(=O)n(CC(C)C)c1=O | > 38.8
COCc1cc(C)nc(SCc2ccccc2)c1C#N | 3.4 (≈ 12 µM)
COc1ccc(CCC(=O)NC(C)c2ccccc2)cc1OC (stereo not given) | > 47
O=C(Nc1ccccn1)Nc1ccccc1Cl | 0.3 (≈ 1.21 µM)
CN(C)c1nc(F)c(F)c(S(=O)(=O)c2ccccc2)c1F | 12.4 (≈ 39.2 µM)
CCCCCCCn1c(NC(=O)CC)nc2ccccc21 | 13.8 (≈ 48 µM)
CCCc1cc(NCCCN(C)C)n2c(nc3ccccc32)c1C#N | 40.5 (≈ 121 µM)
O=C(NCc1ccco1)/C(=C\c1cccs1)NC(=O)c1ccccc1 | > 52.9
CCC(=O)c1ccc(OCC(=O)OCC(=O)N(CCC#N)c2ccc3c(c2)OCCO3)cc1 | 47.5 (≈ 105 µM)
O=[N+]([O-])c1cc2c(cc1CN1CCN(c3ccccc3F)CC1)OCO2 | 1.1 (≈ 3.06 µM)
O=C(OCc1cncs1)c1ccccc1Cl | > 38.1
CCCOc1cccc(C(=O)Nc2cccc3ncccc23)c1 | 7.6 (≈ 24.8 µM)
Cc1nnc(SCC(=O)Nc2sccc2C#N)s1 | > 44.5
COc1cccc(-n2ccnc2SCC(=O)Nc2cc(C)on2)c1 | 37.5 (≈ 109 µM)
CC(C)CNC(=O)C(=O)Nc1cc2c3c(c1)CCC(=O)N3CCC2 | 5 (≈ 15.2 µM)

Compound | solubility kinetic [µg/mL]
O=[N+]([O-])c1ccc(CN2CCN(c3ccccc3Cl)CC2)o1 | 31.8 (≈ 98.8 µM)
CCCc1cc(=S)n2c([nH]c3ccccc32)c1C#N | 16.4 (≈ 61.3 µM)
Cc1cc(OC(=O)c2ccc(F)cc2)c([N+](=O)[O-])c(=O)[nH]1 | 43.2 (≈ 148 µM)
NC(=O)c1ccccc1NC(=O)CC12CC3CC(CC(C3)C1)C2 | 4.1 (≈ 13.1 µM)
O=C(O)c1cc2c(=O)c3ccccc3oc2nc1C(F)(F)F | > 46.4
CCc1cc(C(=O)c2ccccc2)c(N)s1 | 16.6 (≈ 71.8 µM)
COc1ccc(C2CC(C)=C(C#N)S(=O)(=O)C2C#N)cc1 (stereo not given) | > 45.4
Cc1nn(C)cc1CN(C)S(=O)(=O)c1cccc([N+](=O)[O-])c1 | > 48.7
CC(OC(=O)C1=COCCO1)C(=O)Nc1ccc(Cl)cn1 (stereo not given) | > 46.9
CC(=O)c1sccc1NC(=O)c1ccccc1C(=O)O | > 43.4
COc1ccc(C(=O)OCC(=O)NC2CCCCCCC2)cc1OC | 29 (≈ 83 µM)
O=C(O)C1C2CCC(CC2)C1C(=O)N1CCN(Cc2ccc(F)cc2)CC1 (stereo not given) | > 56.2
O=C(Nc1cccnc1)c1ccccc1-c1ccccc1 | > 41.1
Cc1ccc(C(=O)OCC(=O)NCc2ccc3c(c2)OCO3)cc1S(=O)(=O)N1CCOCC1 | 7.2 (≈ 15.1 µM)
COC(=O)CN1C(=O)COc2ccc(S(=O)(=O)N3CCCCCC3)cc21 | 52.4 (≈ 137 µM)
O=C(CSc1nc2ccccc2o1)NCC1CCCO1 (stereo not given) | > 43.9
CCc1ccc(C(=O)NC(CCSC)C(=O)OC)cc1 (stereo not given) | > 44.3
NC(=O)CN1CCCC1c1ccc2c(c1)OCCO2 (stereo not given) | > 39.3
Cc1ccc2[nH]cc(CCNC(=O)c3ccco3)c2c1 | 38.1 (≈ 142 µM)
CCOC(=O)CNC(=O)Cc1ccc(Cl)cc1 | > 38.4

Compound | solubility kinetic [µg/mL]
CNC1(C)[C@H]2CC[C@H](C2)C1(C)C.Cl (stereo not given in full) | > 30.6
Cc1c(C(=O)NCc2ccco2)oc2c(Cl)cccc12 | 2.4 (≈ 8.28 µM)
CC(C)n1cnc2c(oc3ccccc32)c1=O | 7 (≈ 30.7 µM)
O=c1[nH]c(/C=C\c2cccc(C(F)(F)F)c2)nc(O)c1[N+](=O)[O-] | > 49.1
CC1(C)CC(NC(=O)c2ccc(Cl)c(Cl)c2)CC(C)(C)N1 | > 49.4
CCC(Sc1nc2ccccc2o1)C(=O)O (stereo not given) | 35.2 (≈ 148 µM)
O=C(NC1CCC(O)CC1)c1ccc(Br)o1 (stereo not given) | > 43.2
Cc1[nH]c2ccccc2c1/C=C/C(=O)c1ccncc1 | 0.7 (≈ 2.67 µM)
Cc1cccc(OP(N)(=O)Oc2cccc(C)c2)c1 | 40.6 (≈ 146 µM)
CC1=Nc2ccccc2/C1=C/c1c(O)n(C)c(=O)[nH]c1=O | > 42.5
COc1ccc(NC(=O)c2ccc(C)cc2)c[n+]1[O-] | > 38.7
O=C(CN1C(=O)NC2(CCCCCC2)C1=O)c1ccccc1 | > 45.1
CC1(C)CC(/C=C/c2ccccc2)=Nc2ccccc2N1 | 27.2 (≈ 98.4 µM)
O=C(Cc1ccccc1)NCC(=O)N1CCN(Cc2cccc(Cl)c2)CC1 | > 57.9
Cc1cccc(NC(=O)N2CCC(NC(=O)c3ccco3)CC2)c1 | > 49.1
Cc1ccccc1NC(=O)C(=O)c1cn(C)c2ccccc12 | < 0.3
CCC1CCCCN1C(=O)CNCC1CCCO1.Cl (stereo not given) | 27.4
O=C(N/N=C/c1ccccn1)C(O)c1ccccc1 (stereo not given) | > 38.3
COc1ccc(S(=O)(=O)N2CC(=O)Nc3ccccc32)cc1 | > 47.8
COc1ccc(C=NNC(=O)c2cc(C)oc2C)cc1O | > 43.2

Source: PubChem BioAssay AID1996
